# According to PMC5663397, “A composite docking approach for the identification and characterization of ectosteric inhibitors of cathepsin K” (PLoS ONE, 2017):
# Values joined by “and” are separate entries in the source; they are usually repeats but may differ in a detail not shown here. Equal entries are not always repeated. “Also recorded” adds a separate entry of the source. Where two headings read alike, the source gives them in different places.
# What was measured:
# CatK [1] = biological target: T1, CatK (Homo sapiens, UniProt P43235); test: Z-Phe-Arg-MCA cleavage assay with CatK; format: biochemical; conditions: 100 μM inhibitor, 5 nM CatK, 5 μM substrate, pH 5.5
# T1 construct: made in house; host or cells: Pichia pastoris
# T1 sequence (P43235 115-329): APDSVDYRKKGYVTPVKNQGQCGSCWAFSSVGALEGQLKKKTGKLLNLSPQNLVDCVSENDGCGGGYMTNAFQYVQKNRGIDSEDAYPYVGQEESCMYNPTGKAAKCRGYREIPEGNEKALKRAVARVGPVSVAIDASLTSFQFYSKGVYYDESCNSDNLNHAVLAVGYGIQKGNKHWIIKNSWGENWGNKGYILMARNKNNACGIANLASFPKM
# Protocol: The enzymatic activity of CatK was monitored by measuring the rate of release of the fluorogenic group, amino-methyl coumarin at an excitation wavelength of 380 nm and an emission wavelength of 450 nm using a Molecular Devices SpectraMax Gemini spectrofluorometer. Inhibitors were added prior to measurement of enzyme activity. The assays were performed at 25°C at a fixed enzyme concentrations (5 nM) and substrate concentration (5 μM) in 100 mM sodium acetate buffer, pH 5.5, containing 2.5 mM DTT and 2.5 mM EDTA. Z-Phe-Arg-MCA hydrolysis with trypsin was carried out in 50 mM Tris-HCl, pH 8.8 at 10 nM enzyme concentration.
# MMP-1 [2] = biological target: T2, MMP-1 (Homo sapiens, UniProt P03956); test: Collagen digestion with MMP-1; format: biochemical; conditions: 50 μM inhibitor, 400 nM MMP-1
# T2 sequence (P03956 100-469): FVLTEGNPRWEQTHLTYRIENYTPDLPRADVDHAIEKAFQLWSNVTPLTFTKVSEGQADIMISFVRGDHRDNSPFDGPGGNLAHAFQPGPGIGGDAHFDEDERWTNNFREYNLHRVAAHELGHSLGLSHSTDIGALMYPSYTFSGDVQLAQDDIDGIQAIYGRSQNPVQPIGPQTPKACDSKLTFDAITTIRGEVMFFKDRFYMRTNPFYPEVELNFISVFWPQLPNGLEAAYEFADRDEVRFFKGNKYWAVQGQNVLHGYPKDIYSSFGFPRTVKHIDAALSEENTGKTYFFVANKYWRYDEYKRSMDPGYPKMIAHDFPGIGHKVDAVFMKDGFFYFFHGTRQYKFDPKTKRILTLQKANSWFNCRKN
# Protocol: (§1) Digestion with MMP-1 was performed in 50 mM Tris-HCl, pH 7.4, containing 200 mM NaCl and 5 mM CaCl2 at 28°C for 4 h. Reactions were stopped by adding 25 mM EDTA as previously described. Samples were analyzed using 10% SDS-PAGE gels and stained with Coomassie. The resulting bands of α-collagen chains were quantitatively assessed using ImageJ (Version 1.5) and IC50 graphs were plotted using GraphPad Prism (GraphPad Software, Version 5.0, La Jolla California USA).
# human osteoclasts [3] = test: Osteoclast survival: CellTiter-Blue metabolic activity and osteoclast count after TRAcP staining; format: cell-based; conditions: compared with untreated cells
# Protocol: (§2) Osteoclasts were generated from mononuclear cells isolated from human bone marrow tissue (Lonza, Walkersville, MD). The bone marrow cells were centrifuged at 400 g for 5 min and the pellet was re-suspended in 10 mL α-MEM (α-Minimal Essential Media) and layered on 10 ml Ficoll-Plaque media solution. After centrifugation at 500 g for 30 min, the white interface containing the monocytes was harvested and washed twice with α-MEM. Cells were cultured in α-MEM containing 10% FBS and 25 ng/mL M-CSF for 24 hours and then cultured in 25 ng/mL RANKL and 25 ng/mL M-CSF for 7 days. Differentiated osteoclasts (100,000 cells per slice) were then seeded on each bone slice (5.5 mm diameter and 0.4 mm thickness; self-made) in the presence or absence of inhibitors and incubated for 72 hours at 5% CO2 and 37°C with the DMSO concentration at 0.1%. The inhibitor concentration range tested varied between 50 nM to 3 μM.
# (§3) To compare the effects of the compounds on cell survival, the metabolic activity of osteoclasts was determined using the CellTiter-Blue Viability Assay (Promega, Madison, WI, USA). Bone slices from each condition (inhibitor-treated and control groups) were fixed in 4% formaldehyde and subsequently stained for tartrate-resistant acid phosphatase (TRAcP) activity (Acid Phosphatase, Leukocyte (TRAP) Kit; Sigma-Aldrich). Aliquots from cell culture media were used to determine the CTx-I concentration (MyBiosource ELISA kit, San Diego, CA). CTx-I is a CatK-specific C-terminal cleavage product of triple helical type I collagen. The total number of osteoclasts per bone slice was determined after TRAcP staining. Cells with ≥2 nuclei were counted as osteoclasts. After 72 h, bone slices from each condition were incubated in filtered water for cell lysis and cells were removed using a cotton stick. Subsequently the resorption cavities were stained with toluidine blue and observed by light microscopy. The number of resorption events and eroded bone surface area were determined as previously described. All light microscopic analyses were performed using a Nikon Eclipse LV100 microscope and a Nikon Eclipse Ci microscope.
# CatK [4] = biological target: T1, CatK; test: CatK collagenase assay (type I collagen degradation, SDS-PAGE); format: biochemical
# Protocol: The collagenase inhibitory activities of all identified compounds were measured using a collagen degradation assay. Soluble bovine type I collagen (0.6 mg/mL) was incubated with 400 nM recombinant human CatK, in the presence or absence of 200 nM chondroitin 4-sulfate (C4-S) in 100 mM sodium acetate buffer, pH 5.5, containing 2.5 mM dithiothreitol (DTT) (Sigma-Aldrich Canada, Oakville, Ontario, Canada) and 2.5 mM ethylenediametetraacetate (EDTA) (Sigma-Aldrich). In the experiments involving detergent to minimize inhibitor aggregation, 0.001% or 0.005% Triton X-100 was added to the buffer with the inhibitor. The recombinant human CatK was expressed in Pichia pastoris and purified as previously described. Selected compounds identified by molecular docking were ordered from the National Cancer Institute through the Developmental Therapeutics Program (Rockville, MD). All compounds were dissolved in DMSO as a 20 or […] stock. […] After incubation at 28°C for 4 hours, 1 μM of E-64 was added to block the residual activity of CatK.
# as §1
# MMP-1 [5] = biological target: T2, MMP-1; test: Gelatin degradation assay with MMP-1; format: biochemical; conditions: 50 μM inhibitor, 10 nM MMP-1
# Protocol: Gelatin (0.6 mg/mL) degradation assays were performed in the same manner as the collagen degradation experiments with 10 nM enzyme and were incubated at 37°C for one hour at the appropriate pH values for the individual proteases (CatK, pH 5.5; MMP-1, pH 7.4; trypsin, pH 8.8).
# human osteoclasts [6] = test: Human osteoclast bone resorption assay on bone slices; format: cell-based; conditions: 1 μM inhibitor, 72 h, versus untreated
# Protocol: as §2, §3
# quinone oxidoreductase = test system: quinone oxidoreductase; design: method as in PMID 21859103; conditions: cited from earlier work
structure (smiles),measurement,setting,value
"CN(C)CCCNc1ccc2ncn3c4ccccc4c(=O)c1c23 [compound 3, 5-(3-(dimethylamino)propylamino)-6H-imidazo[4,5,1-de]acridin-6-one]",inhibition at 100 µM,CatK [1],5 ± 2.7%
same,inhibitory activity towards the collagenase activity of MMP-1,MMP-1 [2],no inhibitory activity; also recorded: did not show inhibition
same,Metabolic activity of osteoclasts,human osteoclasts [3]; CellTiter-Blue,no significant differences
same,number of osteoclasts,human osteoclasts [3]; TRAcP staining,no significant differences
same,IC50,"CatK [4]; 400 nM CatK, soluble bovine type I collagen 0.6 mg/mL, pH 5.5, 28°C, 4 h, read-out: Collagenase IC50",< 20 µM and 4.9 µM and ~5 µM
same,IC50,"CatK [4]; Collagenase IC50 with 0.005% Triton X-100, in the presence of detergent, 0.005% Triton X-100",5.2 ± 1.5 µM
same,Collagenase IC50 with 0.005% Triton X-100,"CatK [4]; in the presence of detergent, 0.005% Triton X-100",not significantly different
same,inhibitory activity for the gelatinase activity of MMP-1,MMP-1 [5],no inhibitory activity; also recorded: did not show inhibition
same,Number of trenches,human osteoclasts [6],significant reduction; also recorded: significantly reduced
same,percentage of eroded surface area / total eroded surface,human osteoclasts [6],significant reduction; also recorded: significantly reduced
same,activity in an inhibitor screen of a quinone oxidoreductase,quinone oxidoreductase,active
